From ChEMBL document CHEMBL5465560, “Selectivity Literature for EUbOPEN Chemogenomic Library” (2024) come the findings set out here.

For experiment [1], the target named is Serine/threonine-protein kinase/endoribonuclease IRE1 (Homo sapiens) (UniProt O75460). The experiment in a line: Selectivity interaction (Ambit KINOMEscan and KiNATiv profiling in Jurkat cells) EUB0000090b ERN1. In kind it is cell-based. Conditions: at 1 µM.
The target of experiment [2] is Serine/threonine-protein kinase 33 (Homo sapiens) (UniProt Q9BYT3). Briefly: Selectivity interaction (Ambit KINOMEscan and KiNATiv profiling in Jurkat cells) EUB0000090b STK33. The experiment is classed as cell-based. Conditions: at 1 µM.
For experiment [3], the target named is MAP/microtubule affinity-regulating kinase 3 (Homo sapiens) (UniProt P27448). The experiment in a line: Selectivity interaction (KinomeScan (DiscoverX)) EUB0000607a MARK3. Conditions: at 10 µM.
Experiment [4] concerns Mast/stem cell growth factor receptor Kit (Homo sapiens), P10721 [L576P]. Briefly: (§1) Selectivity interaction (KinomeScan (DiscoverX)) EUB0000607a KIT. The note with it: at 10 µM.
Experiment [5] concerns Mast/stem cell growth factor receptor Kit (Homo sapiens), P10721 [D816H]. The experiment is described as §1. The note with it: at 10 µM.
Experiment [6] has as its target AP2-associated protein kinase 1 (Homo sapiens, UniProt Q2M2I8). The experiment in a line: Selectivity interaction (KinomeScan (DiscoverX)) EUB0000666a AAK1. Conditions: at 10 µM.
Experiment [7] concerns the target Casein kinase I isoform epsilon (Homo sapiens, UniProt P49674). The experiment in a line: Selectivity interaction (KinomeScan (DiscoverX)) EUB0001079a CSNK1E. Conditions: at 1 µM.
Experiment [8] deals with T1, Non-receptor tyrosine-protein kinase TNK1 (Homo sapiens) (UniProt Q13470).
T1 sequence (whole entry): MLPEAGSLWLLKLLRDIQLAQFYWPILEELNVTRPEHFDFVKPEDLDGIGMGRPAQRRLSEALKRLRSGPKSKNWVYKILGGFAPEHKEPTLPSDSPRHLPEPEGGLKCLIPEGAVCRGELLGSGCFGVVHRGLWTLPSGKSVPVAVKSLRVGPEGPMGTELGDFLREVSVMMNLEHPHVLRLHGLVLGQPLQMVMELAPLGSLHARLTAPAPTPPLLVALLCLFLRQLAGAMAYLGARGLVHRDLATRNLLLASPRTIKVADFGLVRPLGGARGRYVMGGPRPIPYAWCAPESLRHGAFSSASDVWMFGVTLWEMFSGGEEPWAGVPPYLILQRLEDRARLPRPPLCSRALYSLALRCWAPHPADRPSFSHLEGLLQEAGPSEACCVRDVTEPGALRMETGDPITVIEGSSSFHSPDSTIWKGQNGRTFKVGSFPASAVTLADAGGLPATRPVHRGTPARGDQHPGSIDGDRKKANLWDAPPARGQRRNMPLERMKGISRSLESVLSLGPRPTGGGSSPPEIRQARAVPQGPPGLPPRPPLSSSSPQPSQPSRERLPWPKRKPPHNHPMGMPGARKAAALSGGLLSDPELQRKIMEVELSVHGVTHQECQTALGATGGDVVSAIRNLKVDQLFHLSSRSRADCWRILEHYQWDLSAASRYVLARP
The experiment in a line: Selectivity interaction (KinomeScan (DiscoverX)) EUB0001619a TNK1. The note with it: at 1 µM.

Experiment [9] deals with Tyrosine-protein kinase Lyn (Homo sapiens, UniProt P07948). Briefly: Selectivity interaction (ActivX KiNativ screen (ex vivo kinase selectivity in human PBMCs)) EUB0001619a LYN. In kind it is cell-based. Conditions: PBMC, at 1 µM.
In experiment [10] the target is T2, Serine/threonine-protein kinase D2 (Homo sapiens) (UniProt Q9BZL6).
T2 sequence (whole entry): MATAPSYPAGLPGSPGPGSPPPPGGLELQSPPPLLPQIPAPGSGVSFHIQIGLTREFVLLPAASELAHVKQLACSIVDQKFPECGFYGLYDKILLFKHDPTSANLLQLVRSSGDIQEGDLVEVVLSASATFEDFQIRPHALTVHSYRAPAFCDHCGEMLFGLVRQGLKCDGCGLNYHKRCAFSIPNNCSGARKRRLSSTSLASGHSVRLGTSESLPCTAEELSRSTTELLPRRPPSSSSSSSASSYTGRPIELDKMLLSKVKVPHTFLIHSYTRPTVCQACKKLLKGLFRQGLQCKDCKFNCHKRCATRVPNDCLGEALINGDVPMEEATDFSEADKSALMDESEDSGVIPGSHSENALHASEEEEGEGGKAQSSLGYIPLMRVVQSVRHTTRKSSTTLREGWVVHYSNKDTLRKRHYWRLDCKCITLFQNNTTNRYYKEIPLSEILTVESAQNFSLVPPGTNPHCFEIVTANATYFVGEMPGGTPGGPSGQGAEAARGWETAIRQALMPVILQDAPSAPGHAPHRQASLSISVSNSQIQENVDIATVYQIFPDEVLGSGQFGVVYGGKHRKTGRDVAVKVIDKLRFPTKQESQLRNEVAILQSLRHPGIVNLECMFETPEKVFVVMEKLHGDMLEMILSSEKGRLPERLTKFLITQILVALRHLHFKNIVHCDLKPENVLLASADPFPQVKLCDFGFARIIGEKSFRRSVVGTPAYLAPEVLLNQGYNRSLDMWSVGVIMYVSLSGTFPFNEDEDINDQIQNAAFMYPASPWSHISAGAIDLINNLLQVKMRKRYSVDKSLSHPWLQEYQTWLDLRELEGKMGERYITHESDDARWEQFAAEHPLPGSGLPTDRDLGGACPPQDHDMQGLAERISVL
The experiment in a line: Selectivity interaction (ActivX KiNativ screen (ex vivo kinase selectivity in human PBMCs)) EUB0001619a PRKD2. In kind it is cell-based. Conditions: PBMC, at 1 µM.

A further experiment addresses Adenosine receptor A1 (Homo sapiens, UniProt P30542). The experiment in a line: Selectivity interaction (Adenosine 1 receptor binding assay, human recombinant) EUB0000877a ADORA1.
In experiment [11] the target is cAMP-dependent protein kinase catalytic subunit alpha (Homo sapiens, UniProt P17612). The experiment in a line: Selectivity interaction (KinomeScan (DiscoverX)) EUB0001049a PRKACA. The note with it: at 1 µM.
Experiment [12] addresses Serine/threonine-protein kinase PAK 6 (Homo sapiens) (UniProt Q9NQU5). Briefly: Selectivity interaction (KinomeScan (DiscoverX)) EUB0001049a PAK6. Conditions: at 1 µM.
In the next experiment the target is Misshapen-like kinase 1 (Homo sapiens, UniProt Q8N4C8). Briefly: Selectivity interaction (KinomeScan (DiscoverX)) EUB0000695a MINK1. Conditions: at 100 nM.
Experiment [13] addresses Macrophage-stimulating protein receptor (Homo sapiens, UniProt Q04912). The experiment in a line: Selectivity interaction (KinomeScan (DiscoverX)) EUB0000092b MST1R. The note with it: at 10 µM.
Experiment [14] has as its target Mitogen-activated protein kinase 6 (Homo sapiens) (UniProt Q16659). Briefly: Selectivity interaction (KinomeScan (DiscoverX)) EUB0000092b MAPK6. Conditions: at 10 µM.
In experiment [15] the target is Serine/threonine-protein kinase/endoribonuclease IRE1 (Homo sapiens) (UniProt O75460). Briefly: Selectivity interaction (KinomeScan (DiscoverX)) EUB0000045b ERN1.
Experiment [16] concerns the target Mitogen-activated protein kinase 14 (Homo sapiens, UniProt Q16539). Conditions: at 10 µM.
The target in experiment [17] is Mitogen-activated protein kinase 9 (Homo sapiens, UniProt P45984). The experiment in a line: Selectivity interaction (KinomeScan (DiscoverX)) EUB0000618a MAPK9. The note with it: at 10 µM.
The target of experiment [18] is T2, Serine/threonine-protein kinase D2 (Homo sapiens). The experiment in a line: Selectivity interaction (Upstate Kinase Profiler service (Millipore)) EUB0000056c PRKD2. Conditions: at 1 µM.

Serine/threonine-protein kinase/endoribonuclease IRE1 (Homo sapiens), sequence (O75460 19-977 limits assumed): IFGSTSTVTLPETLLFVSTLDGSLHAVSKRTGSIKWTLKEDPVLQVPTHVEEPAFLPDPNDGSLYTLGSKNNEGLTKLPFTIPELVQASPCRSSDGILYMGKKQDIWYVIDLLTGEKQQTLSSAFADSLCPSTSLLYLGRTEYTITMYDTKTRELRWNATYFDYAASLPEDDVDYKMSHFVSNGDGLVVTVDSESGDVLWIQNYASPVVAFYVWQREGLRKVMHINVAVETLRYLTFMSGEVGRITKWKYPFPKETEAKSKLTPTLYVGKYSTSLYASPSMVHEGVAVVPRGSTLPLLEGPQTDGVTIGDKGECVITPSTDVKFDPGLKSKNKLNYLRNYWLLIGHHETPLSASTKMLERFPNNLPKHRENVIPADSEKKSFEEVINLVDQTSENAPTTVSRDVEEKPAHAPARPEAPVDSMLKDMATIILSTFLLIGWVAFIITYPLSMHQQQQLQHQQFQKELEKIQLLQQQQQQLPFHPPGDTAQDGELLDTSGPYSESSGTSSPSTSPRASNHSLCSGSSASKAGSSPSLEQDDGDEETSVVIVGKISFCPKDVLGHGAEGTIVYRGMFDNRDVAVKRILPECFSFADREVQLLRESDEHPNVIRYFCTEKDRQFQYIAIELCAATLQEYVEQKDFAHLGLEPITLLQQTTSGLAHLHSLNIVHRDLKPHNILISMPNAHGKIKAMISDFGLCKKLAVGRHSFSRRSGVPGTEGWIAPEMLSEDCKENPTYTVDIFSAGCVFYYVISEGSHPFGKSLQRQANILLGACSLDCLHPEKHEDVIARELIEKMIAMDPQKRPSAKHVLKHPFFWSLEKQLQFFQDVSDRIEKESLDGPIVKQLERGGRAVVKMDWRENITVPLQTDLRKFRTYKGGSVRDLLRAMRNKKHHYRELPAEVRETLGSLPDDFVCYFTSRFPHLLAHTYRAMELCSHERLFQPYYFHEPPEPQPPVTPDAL
Mitogen-activated protein kinase 14, sequence (Q16539 whole entry): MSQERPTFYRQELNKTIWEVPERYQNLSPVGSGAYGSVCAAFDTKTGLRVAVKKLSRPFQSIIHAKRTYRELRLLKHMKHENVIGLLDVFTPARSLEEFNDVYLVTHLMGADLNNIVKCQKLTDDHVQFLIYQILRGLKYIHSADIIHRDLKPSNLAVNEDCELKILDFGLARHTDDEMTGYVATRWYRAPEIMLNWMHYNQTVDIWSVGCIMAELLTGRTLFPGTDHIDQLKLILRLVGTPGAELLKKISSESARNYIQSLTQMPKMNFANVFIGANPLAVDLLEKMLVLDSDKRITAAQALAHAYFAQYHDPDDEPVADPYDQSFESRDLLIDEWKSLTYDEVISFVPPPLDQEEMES
Adenosine receptor A1, sequence (P30542 whole entry): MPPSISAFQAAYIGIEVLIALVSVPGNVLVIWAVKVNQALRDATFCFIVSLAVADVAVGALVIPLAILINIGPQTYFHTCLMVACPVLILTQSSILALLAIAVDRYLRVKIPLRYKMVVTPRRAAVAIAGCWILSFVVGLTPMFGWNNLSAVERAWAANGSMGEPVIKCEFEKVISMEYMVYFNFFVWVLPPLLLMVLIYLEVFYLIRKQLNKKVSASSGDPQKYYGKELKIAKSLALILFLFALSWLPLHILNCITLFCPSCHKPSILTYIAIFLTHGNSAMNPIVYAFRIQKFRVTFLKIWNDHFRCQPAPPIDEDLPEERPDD
Serine/threonine-protein kinase PAK 6 (Homo sapiens), sequence (Q9NQU5 whole entry, looked up): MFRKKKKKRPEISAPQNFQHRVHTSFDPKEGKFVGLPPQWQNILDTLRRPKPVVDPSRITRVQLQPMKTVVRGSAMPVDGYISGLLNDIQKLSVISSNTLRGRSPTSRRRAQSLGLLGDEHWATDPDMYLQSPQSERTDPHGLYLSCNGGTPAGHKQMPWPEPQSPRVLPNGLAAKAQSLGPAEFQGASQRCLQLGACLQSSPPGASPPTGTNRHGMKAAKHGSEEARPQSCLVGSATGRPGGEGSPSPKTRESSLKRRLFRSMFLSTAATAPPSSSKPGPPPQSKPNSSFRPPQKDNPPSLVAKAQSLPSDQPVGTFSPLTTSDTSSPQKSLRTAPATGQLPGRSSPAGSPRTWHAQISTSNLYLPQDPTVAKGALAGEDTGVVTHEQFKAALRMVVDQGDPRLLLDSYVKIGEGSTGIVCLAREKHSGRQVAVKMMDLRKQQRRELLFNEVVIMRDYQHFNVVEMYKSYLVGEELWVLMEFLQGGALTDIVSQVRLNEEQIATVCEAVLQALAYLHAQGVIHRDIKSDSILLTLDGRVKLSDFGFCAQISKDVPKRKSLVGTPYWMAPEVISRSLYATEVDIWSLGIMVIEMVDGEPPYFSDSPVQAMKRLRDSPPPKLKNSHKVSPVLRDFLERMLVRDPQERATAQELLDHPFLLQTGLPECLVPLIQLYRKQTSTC
Mitogen-activated protein kinase 9, sequence (P45984 whole entry, looked up): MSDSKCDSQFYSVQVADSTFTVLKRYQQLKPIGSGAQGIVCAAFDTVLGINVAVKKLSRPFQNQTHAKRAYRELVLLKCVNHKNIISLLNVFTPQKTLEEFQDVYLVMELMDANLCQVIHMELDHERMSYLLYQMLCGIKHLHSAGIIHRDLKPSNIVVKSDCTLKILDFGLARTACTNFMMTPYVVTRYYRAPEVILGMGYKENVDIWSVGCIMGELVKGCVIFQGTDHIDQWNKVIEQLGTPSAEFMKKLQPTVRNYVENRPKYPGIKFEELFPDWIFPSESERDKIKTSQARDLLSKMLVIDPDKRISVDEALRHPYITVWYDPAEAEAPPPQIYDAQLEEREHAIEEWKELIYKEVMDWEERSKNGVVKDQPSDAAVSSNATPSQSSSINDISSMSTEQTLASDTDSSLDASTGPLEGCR
Tyrosine-protein kinase Lyn, sequence (P07948 2-512 limits assumed): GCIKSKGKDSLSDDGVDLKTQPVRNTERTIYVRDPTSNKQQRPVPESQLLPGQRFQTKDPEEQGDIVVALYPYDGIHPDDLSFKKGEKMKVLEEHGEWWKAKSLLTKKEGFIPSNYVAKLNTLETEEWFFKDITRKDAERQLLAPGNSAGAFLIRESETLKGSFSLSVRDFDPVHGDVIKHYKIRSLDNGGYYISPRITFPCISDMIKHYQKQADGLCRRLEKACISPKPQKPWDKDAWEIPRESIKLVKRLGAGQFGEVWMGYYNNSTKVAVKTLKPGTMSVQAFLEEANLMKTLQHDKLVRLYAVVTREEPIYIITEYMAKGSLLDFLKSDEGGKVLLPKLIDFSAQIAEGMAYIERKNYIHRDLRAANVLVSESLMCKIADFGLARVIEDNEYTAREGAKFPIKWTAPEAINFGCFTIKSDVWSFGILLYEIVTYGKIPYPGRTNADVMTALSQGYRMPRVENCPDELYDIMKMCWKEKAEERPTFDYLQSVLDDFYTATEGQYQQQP
Misshapen-like kinase 1, sequence (Q8N4C8 whole entry, looked up): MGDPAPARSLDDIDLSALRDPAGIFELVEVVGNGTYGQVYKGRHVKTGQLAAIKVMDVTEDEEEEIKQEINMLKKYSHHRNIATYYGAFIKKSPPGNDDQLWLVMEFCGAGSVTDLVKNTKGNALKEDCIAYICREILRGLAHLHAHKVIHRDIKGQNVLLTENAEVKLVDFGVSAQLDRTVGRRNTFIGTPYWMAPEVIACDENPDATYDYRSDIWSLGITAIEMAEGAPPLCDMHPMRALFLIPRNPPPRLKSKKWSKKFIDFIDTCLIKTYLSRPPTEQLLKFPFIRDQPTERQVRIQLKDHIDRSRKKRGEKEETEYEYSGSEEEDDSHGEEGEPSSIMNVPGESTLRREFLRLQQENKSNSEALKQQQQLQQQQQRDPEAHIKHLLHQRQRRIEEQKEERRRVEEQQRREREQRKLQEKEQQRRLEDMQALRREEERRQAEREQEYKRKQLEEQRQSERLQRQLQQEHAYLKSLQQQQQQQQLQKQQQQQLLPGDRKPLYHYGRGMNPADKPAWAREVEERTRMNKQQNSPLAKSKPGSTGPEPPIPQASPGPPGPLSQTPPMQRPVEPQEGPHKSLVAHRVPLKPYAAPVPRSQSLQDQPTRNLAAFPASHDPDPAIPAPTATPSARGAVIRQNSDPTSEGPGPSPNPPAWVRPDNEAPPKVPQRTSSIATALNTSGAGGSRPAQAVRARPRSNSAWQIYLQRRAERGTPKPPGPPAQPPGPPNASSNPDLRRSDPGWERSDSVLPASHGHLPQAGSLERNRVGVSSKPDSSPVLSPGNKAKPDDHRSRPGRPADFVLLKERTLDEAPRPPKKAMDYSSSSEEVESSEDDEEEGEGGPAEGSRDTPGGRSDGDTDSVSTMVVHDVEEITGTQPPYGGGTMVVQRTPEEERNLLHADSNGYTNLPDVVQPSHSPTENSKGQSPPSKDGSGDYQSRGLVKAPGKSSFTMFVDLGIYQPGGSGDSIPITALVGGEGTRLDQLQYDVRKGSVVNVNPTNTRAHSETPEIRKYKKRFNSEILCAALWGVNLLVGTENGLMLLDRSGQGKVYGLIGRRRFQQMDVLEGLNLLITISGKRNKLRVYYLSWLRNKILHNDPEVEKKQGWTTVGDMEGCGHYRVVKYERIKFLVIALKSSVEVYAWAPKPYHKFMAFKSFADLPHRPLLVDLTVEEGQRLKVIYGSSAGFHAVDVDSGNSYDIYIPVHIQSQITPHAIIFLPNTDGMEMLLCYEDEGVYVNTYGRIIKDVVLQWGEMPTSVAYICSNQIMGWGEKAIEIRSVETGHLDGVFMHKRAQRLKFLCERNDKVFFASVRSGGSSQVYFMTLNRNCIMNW
Casein kinase I isoform epsilon, sequence (P49674 whole entry, looked up, canonical isoform): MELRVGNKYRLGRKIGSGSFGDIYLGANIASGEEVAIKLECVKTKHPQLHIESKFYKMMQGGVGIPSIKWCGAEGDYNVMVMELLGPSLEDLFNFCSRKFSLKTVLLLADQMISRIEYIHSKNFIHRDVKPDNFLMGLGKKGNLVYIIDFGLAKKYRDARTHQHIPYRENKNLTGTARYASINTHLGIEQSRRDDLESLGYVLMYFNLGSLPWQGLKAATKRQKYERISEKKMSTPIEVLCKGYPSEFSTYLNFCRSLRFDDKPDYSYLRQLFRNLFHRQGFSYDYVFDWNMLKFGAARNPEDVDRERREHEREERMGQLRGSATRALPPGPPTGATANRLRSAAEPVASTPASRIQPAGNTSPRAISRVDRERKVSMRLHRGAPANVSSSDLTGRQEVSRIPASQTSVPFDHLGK

`CN(C)C/C=C/C(=O)Nc1ccc(C(=O)N2CCCC(Nc3ncc(Cl)c(-c4c[nH]c5ccccc45)n3)C2)cc1` (stereo unspecified): the % of control in experiment [1] stood at 92%; in experiment [2] it was 90%.
In the case of `CNC(=O)Nc1ccc(-c2nc(N3CC4CCC(C3)O4)c3cnn(C4CCC5(CC4)OCCO5)c3n2)cc1`, the % of control in [3] is 92%; in [4], 85%; in experiment [5], 86%.
In experiment [6], `O=C(NOC[C@H](O)CO)c1ccc(F)c(F)c1Nc1ccc(I)cc1F` registered a % of control of 100%.
`Nc1cnc(N2CCc3cc(S(=O)(=O)Nc4c(F)cc(Cl)cc4F)cc(N4CCCC4=O)c32)nc1` [TP-020n] registered a % of control in experiment [7] of 89%.
In experiment [8], `N#Cc1cccc(-c2c[nH]c3ncnc(N4CCOCC4)c23)c1` returned a % of control of 32%. Moreover, the figures for the % of inhibition in [9] and in experiment [10] were 1% and 9%, respectively.
In the case of `CCC(=O)N1CC[C@H](Nc2ncnc3c2CN(c2cnc(OC)c(C(F)(F)F)c2)CC3)C1` [LENIOLISIB], the 50% inhibitory concentration (IC50) at Adenosine receptor A1 was more than 30 µM.
On to `COc1cc(Nc2nc(C)cc(-c3cnn4nc(OC)ccc34)n2)cc(C(F)(F)F)c1`, for which the % of control in experiment [11] came out at 92%; in experiment [12], 82%.
Take `Cc1cc(F)c(C(=O)Nc2cccc(-c3nncn3C(C)C)n2)cc1-n1cnc(C2CC2)c1`: the % of control at Misshapen-like kinase 1 was 83%.
For `CCC(=O)N1CCN(c2ccc(-n3c(=O)ccc4cnc5ccc(-c6cnc7ccccc7c6)cc5c43)cc2C(F)(F)F)CC1`, the % of control was 55% in experiment [13] and 1.8% in experiment [14].
In the case of `C=CC(=O)Nc1cc(-n2c(=O)ccc3cnc4ccc(-c5ccc(NS(C)(=O)=O)cc5)cc4c32)ccc1C`, the figures for the % of control in [15] (at 1 µM) and in [15] (at 10 µM) were 100% and 99%, respectively.
Regarding `O[C@H]1CC[C@H](Nc2ncc3nc(Nc4c(F)cc(F)cc4F)n([C@H]4CCOC4)c3n2)CC1`, the % of control in experiment [16] was determined as 3.4%; in experiment [17], 0%.
In the case of `Cc1ccc(-c2ccc3c(ccc4sc5c(c43)NC[C@@H](C)NC5=O)n2)cn1`, the % of inhibition in [18] is -9%.
